The text below walks through data of patent US20220023181A1, “PEROXIDE-LESS BIOPHOTONIC COMPOSITIONS AND METHODS” (KLOX TECHNOLOGIES LIMITED, priority 2015, published 2022).

The nature of this assay: Dilution assay with ROS test assay (liposomes + fluorogenic α-tocopherol probe). To be noted: Example 5 first round; illumination 5 or 9 min per sample. As to the method:
For the dilution assay, an amount of a given gel composition is taken and mixed into a volume of PBS in order to dilute the gel. For example, to make a 10 mL solution ten times diluted, a 1 gram sample of the particular gel is mixed into 9 mL of PBS. Thereafter, depending on the make-up of the sample to be tested, an amount of a particular compound, for example urea peroxide (UP) or a particular salt, could be added in order to either boost an amount of the particular compound that was already in the sample to be tested or to test the effect of adding that given compound per se. With respect to adding UP in order to make test samples with various concentrations to be tested in a concomitant series of tests, an initial sample with a high concentration would be prepared from which aliquots would be taken and diluted down with PBS in order to the test samples with the various concentration of UP. In a multi-well plate, the given diluted sample are mixed with 19.1 μL of the liposome solution (to give a final liposome concentration of 15.4 mg/mL in the test sample) in order to provide a 2 mm thickness of the resulting paste-like mixture, this thickness being equivalent to a thickness of gel that would be spread on a patient or used in an in vitro assay. Also present in the sample-liposome mixture is a quantity of the chemical probe that is used in the reactive oxygen species (ROS) test assay (362.9 μL of the of the diluted gel (i.e., the given gel sample that is to be tested) is mixed with 19.1 μL of liposome-probe, as including the chemical probe in the sample-liposome mixture is to ensure that any ROS species will be afforded a maximal opportunity to interact with the probe and thus be detectable as having been generated as a result of any interaction that may occur in the gel composition upon it becoming activated. […] After the illumination is completed, a 100 μL to 300 μL aliquot of the sample-liposome transferred to a 96-well plate for conducting the ROS test (as further described in (iii) below). For the test samples, stock solutions of the samples were made and diluted such that direct comparisons could be made between the samples (e.g., for the measurement of reactive oxygen species).
The ROS test assay utilized in the experimental protocols of the Examples of the present disclosure is that which is described in Krumova et al. “How Lipid Unsaturation, Peroxyl Radical Partitioning, and Chromanol Lipophilic Tail Affect the Antioxidant Activity of a-Tocopherol: direct Visualization via High-Throughput Fluorescence Studies Conducted with Fluorogenic a-Tocopherol Analogues” (J. Am. Chem. Soc. 2012, vol. 134, pages 10102-10113). The assay utilizes highly sensitive fluorogenic α-tocopherol (TOH) analogues that undergo a 30-fold fluorescence intensity enhancement upon their reaction with peroxyl radicals that are generated due to the oxidation of the liposome membrane with ROS species that may be present in the reaction mixture. The assay utilizes a high-throughput microplate reader that relies on the high sensitivity of the TOH probes and provides a quantitative treatment of the temporal evolution of the fluorescence intensity thereby allowing for kinetic information to be obtained under the conditions being analyzed. The TOH analogues are two-segment receptor-reporter probes that consist of a chromanol moiety coupled to the meso position of a BODIPY fluorophore, either by an ester linker (the probe being called H2B-TOH) or via a methylene linker (the probe being called H2B-PMHC). The chromanol moiety quenches the emission of the fluorophore until it is oxidized following reaction with peroxyl radicals. […]
As to `NC(N)=O.OO` [S 23, urea peroxide], the ROS came to 0.46 µM. The same measure for `NC(N)=O.OO` [S 29, urea peroxide]: 0.86 µM; for `NC(N)=O.OO` [S 28, urea peroxide]: 0.87 µM. As to `NC(N)=O.OO` [S 26, urea peroxide], the ROS was 0.72 µM. The same measure for `NC(N)=O.OO` [S 24, urea peroxide]: 0.51 µM; for `NC(N)=O.OO` [S 27, urea peroxide]: 0.75 µM. The result for `NC(N)=O.OO` [S 20, urea peroxide] reads 0.34 µM; that for `NC(N)=O.OO` [S 25, urea peroxide], 0.56 µM.

Regarding `NC(N)=O.OO` [S 22, urea peroxide], the ROS was found to be 0.49 µM.

Turning to `NC(N)=O.OO` [S 21, urea peroxide], the ROS came to 0.39 µM.
